In the supplement of paper PMC10627819:

Columns and labels:
S. pneumoniae D39V [1] = assay: fitness (endpoint OD595 vs no drug) (fraction); higher = more growth
Procedure, shortened: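 Fitness was measured as bacterial growth in 384-well plates inoculated at OD595 0.01 (30 µl, or 55 µl for S. pneumoniae). Media were TSB, LB Lennox or CY, at 37 °C. OD595 was read every 30 min for 14 h and background-subtracted against the first reading. Fitness is OD595 at the transition into stationary phase divided by the robust mean of no-drug control wells, capped at 1.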

S. aureus DSM 20231 = assay: Bliss interaction score (quartile over a dose matrix) (fitness difference); higher = more antagonism (negative = synergy)
Procedure, shortened: (§1)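 The Bliss score was calculated by subtracting the expected fitness, the product of single-drug values, from the observed fitness. OD595 at entry into stationary phase, over the plate's robust no-drug mean and capped at 1, served as the fitness readout. Single-drug values were inferred from combination data, and scores are summarised by quartiles across technical, biological and donor/recipient replicates.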

S. aureus Newman = assay: as above
Procedure, shortened: as §1

S. pneumoniae D39V [2] = assay: as above
Procedure, shortened: as §1

B. subtilis 168 = assay: as above
Procedure, shortened: as §1
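For Bliss interaction score (quartile over a dose matrix) in this document: first quartile when negative (synergy) and third quartile when positive (antagonism).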

CNC(C)C1CCC(N)C(OC2C(N)CC(N)C(OC3OCC(C)(O)C(NC)C3O)C2O)O1 (centres undefined) [Gentamicin] + Clc1ccc(COC(Cn2ccnc2)c2ccc(Cl)cc2Cl)c(Cl)c1 [Miconazole]
fitness, S. pneumoniae D39V [1], main component drawn
Details | partner 1.073 µg/mL | partner 1.25 µg/mL | partner 2.145 µg/mL | partner 2.5 µg/mL | partner 4.29 µg/mL | partner 5 µg/mL
first compound 2 µg/mL | ≥ 1 | 0.915 | ≥ 1 | 0.901 | 0.912 | 0.905
first compound 4 µg/mL | ≥ 1 | 0.884 | 0.998 | 0.893 | 0.987 | 0.911
first compound 8 µg/mL | 0.996 | 0.838 | ≥ 1 | 0.868 | 0.913 | 0.875

main component drawn
Details | Bliss interaction score
B. subtilis 168 | -0.151
S. aureus DSM 20231 | 0.102
S. aureus Newman | 0.0417
S. pneumoniae D39V [2] | 0.0753

CNC(C)C1CCC(N)C(OC2C(N)CC(N)C(OC3OCC(C)(O)C(NC)C3O)C2O)O1 (centres undefined) [Gentamicin] + C[C@@H](O)[C@H]1C(=O)N2C(C(=O)O)=C(SCCNC=N)C[C@H]12 [Imipenem]
fitness, S. pneumoniae D39V [1], main component drawn
Details | partner 0.005 µg/mL | partner 0.0065 µg/mL | partner 0.01 µg/mL | partner 0.013 µg/mL | partner 0.02 µg/mL | partner 0.026 µg/mL
first compound 2 µg/mL | 0.924 | 0.989 | 0.915 | ≥ 1 | 0.914 | 0.661
first compound 4 µg/mL | 0.928 | 0.971 | 0.922 | 0.996 | 0.92 | 0.964
first compound 8 µg/mL | 0.895 | 0.917 | 0.864 | 0.931 | 0.874 | 0.892

main component drawn
Details | Bliss interaction score
B. subtilis 168 | 0.199
S. aureus DSM 20231 | 0.0591
S. aureus Newman | -0.0478
S. pneumoniae D39V [2] | 0.0671

Clc1ccc(COC(Cn2ccnc2)c2ccc(Cl)cc2Cl)c(Cl)c1 (centres undefined) [Miconazole] + CN[C@H](CC(C)C)C(=O)N[C@H]1C(=O)N[C@@H](CC(N)=O)C(=O)N[C@H]2C(=O)N[C@H]3C(=O)N[C@H](C(=O)N[C@H](C(=O)O)c4cc(O)cc(O)c4-c4cc3ccc4O)[C@H](O)c3ccc(c(Cl)c3)Oc3cc2cc(c3O[C@@H]2O[C@H](CO)[C@@H](O)[C@H](O)[C@H]2O[C@H]2C[C@](C)(N)[C@H](O)[C@H](C)O2)Oc2ccc(cc2Cl)[C@H]1O [Vancomycin]
fitness, S. pneumoniae D39V [1]
Details | first compound 1.073 µg/mL | first compound 1.25 µg/mL | first compound 2.145 µg/mL | first compound 2.5 µg/mL | first compound 4.29 µg/mL | first compound 5 µg/mL
partner 0.03125 µg/mL | – | 0.993 | – | ≥ 1 | – | 0.966
partner 0.0625 µg/mL | – | 0.909 | – | 0.923 | – | 0.913
partner 0.125 µg/mL | 0.884 | 0.759 | 0.851 | 0.81 | 0.84 | 0.731
partner 0.5 µg/mL | – | – | – | – | 0.415 | –

Details | Bliss interaction score
B. subtilis 168 | 0.0343
S. aureus DSM 20231 | 0.0309
S. aureus Newman | 0.0654
S. pneumoniae D39V [2] | 0.154

Cc1onc(-c2ccccc2)c1C(=O)N[C@@H]1C(=O)N2[C@@H]1SC(C)(C)[C@@H]2C(=O)O [Oxacillin] + CO[C@H]1/C=C/O[C@@]2(C)Oc3c(C)c(O)c4c(O)c(c(/C=N/N5CCN(C)CC5)c(O)c4c3C2=O)NC(=O)/C(C)=C\C=C\[C@H](C)[C@H](O)[C@@H](C)[C@@H](O)[C@@H](C)[C@H](OC(C)=O)[C@@H]1C [Rifampicin]
S. pneumoniae D39V [1], partner 0.025 µg/mL, one replicate
Details | fitness
first compound 0.01 µg/mL | 0.891
first compound 0.02 µg/mL | 0.801
first compound 0.04 µg/mL | 0.407

S. pneumoniae D39V [1], partner 0.2 µg/mL
Details | fitness
first compound 0.01 µg/mL | 0.144
first compound 0.02 µg/mL | 0.0871
first compound 0.04 µg/mL | 0.143

Details | Bliss interaction score
B. subtilis 168 | 0.0578
S. aureus DSM 20231 | 0.0464
S. aureus Newman | 0.0684
S. pneumoniae D39V [2] | -0.0851

O=C(O)[C@H]1/C(=C/CO)O[C@@H]2CC(=O)N21 [Clavulanic] + N[C@@H]1CONC1=O [CycloserineD]
Details | Bliss interaction score
B. subtilis 168 | 0.0614
S. aureus DSM 20231 | 0.116
S. aureus Newman | -0.0992
S. pneumoniae D39V [2] | -0.0906

Cc1onc(-c2ccccc2)c1C(=O)N[C@@H]1C(=O)N2[C@@H]1SC(C)(C)[C@@H]2C(=O)O [Oxacillin] + CC[C@H]1OC(=O)[C@H](C)C(=O)[C@H](C)[C@@H](O[C@@H]2O[C@H](C)C[C@H](N(C)C)[C@H]2O)[C@](C)(OC)C[C@@H](C)C(=O)[C@H](C)[C@H]2N(CCCCn3cnc(-c4cccnc4)c3)C(=O)O[C@]12C [Telithromycin]
Details | Bliss interaction score
B. subtilis 168 | -0.0301
S. aureus DSM 20231 | 0.0397
S. aureus Newman | 0.0304
S. pneumoniae D39V [2] | 0.112
